According to US20120135078A1, “ANGINA TREATMENT” (University of Dindee, priority 2009, published 2012):

How the values were obtained:
angina patients = conditions: references 1-7; cited from earlier work
[1] = system: patients with chronic stable angina; experiment: Treadmill exercise tolerance test (full Bruce protocol), randomised double-blind placebo-controlled cross-over study; assay type: in vivo, human
Experimental: The trial was carried out at Ninewells Hospital, UK. It was approved by the Fife, Forth Valley and Tayside Research Ethics Committee and was conducted in accordance with the Declaration of Helsinki. Signed, written informed consent was obtained from each participant.
Individuals aged 18 to 85 years were eligible if they had angiographically documented coronary artery disease, a positive exercise tolerance test (ETT) and a history of symptoms of chronic, stable, effort-induced angina for ≧2 months. Concomitant antianginal medication was allowed.
Exclusion criteria included myocardial infarction ≧2 months, coronary revascularization (percutaneous or CABG) ≧6 months, Left Ventricular Ejection Fraction <45%, estimated GFR <45 ml/min, significant valvular pathology, already on allopurinol, atrial arrhythmias or ECG abnormalities interfering with ST-segment interpretation.
Eligible participants had to manifest ischaemia (ST depression ≧1mm compared to resting ECG) on both visits with a between visit difference in time to ST depression of less than 15%. Otherwise, a third ETT was performed and there had to be a difference of less than 15% between the second and third test.
(§1) Eligible participants were then randomised to either allopurinol up to 300 mg BID or matching placebo for 6 weeks. The dose of allopurinol started at 100 mg OD for the first week, 300 mg OD for the second week and 300 mg BID for the remaining treatment period.
The ECG analysis was performed by two independent observers who were both blind to the treatments. The results of each assessment were virtually identical.
(§2) A p value <0.05 was considered significant.

[2] = Serum analysis (biochemical data) in the cross-over study; assay type: in vivo, human; conditions: mean ± SD; after allopurinol treatment; p<0.001 vs baseline and placebo
Experimental: as §1, §2

[3] = cited from earlier work
[4] = system: patients with chronic stable angina; experiment: Haemodynamic responses during exercise testing
[5] = median, after 6 weeks allopurinol up to 300 mg BID (600 mg/day) added to existing anti-anginal medication
[6] = mean ± SD, Stage 1 of Bruce protocol

COc1cc2c(cc1OC)CC(=O)N(CCCN(C)C[C@H]1Cc3cc(OC)c(OC)cc31)CC2 [ivabradine]
increase in time to ST depression, comparable published figures (angina patients): 46 s | increase in time to ST depression, comparable published figures (percent) (angina patients): 13.5%

Oc1ncnc2[nH]ncc12 [Allopurinol, 1,5-dihydro-4H-pyrazolo[3,4-d]pyrimidin-4-one]
absolute increase in median time to ST depression ([1]; allopurinol vs baseline): 66 s | increase in median time to ST depression (percent) ([1]; allopurinol vs baseline): 28% | median exercise time higher on allopurinol than on placebo or baseline ([1]; difference of medians): 86 to 92 s | median exercise time higher on allopurinol than on placebo or baseline (percent) ([1]; difference of medians): 30% | increase in time to ST depression by geometric mean ([1]; geometric mean): 22% | Time to ST Depression [1, 5]: 298 s | Total Exercise Time [1, 5]: 393 s | Time to Symptoms ([1]; median, after 6 weeks allopurinol up to 300 mg BID added to existing anti-anginal medication): 304 s | serum uric acid [2]: 0.14 ± 0.05 mmol/L | solubility in chloroform and in ether ([3]; chloroform, ether): practically insoluble | solubility in dilute solutions of alkali hydroxides ([3]; dilute solutions of alkali hydroxides): dissolves | solubility in water and alcohol ([3]; water and alcohol): only slightly soluble | systolic blood pressure change at the end of the first stage of the Bruce protocol ([4]; change from baseline, p=0.026 vs placebo): −6.1 mmHg | HR Stage 1 [4, 6]: 95.6 ± 13.5 bpm | RPP (Rate Pressure Product) Stage 1 [4, 6]: 12756 ± 2798 bpm · mmHg | dBP Stage 1 [4, 6]: 71.7 ± 10.1 mmhg | sBP Stage 1 [4, 6]: 135.5 ± 19.3 mmHg | HR Peak exercise ([4]; mean ± SD, peak exercise): 118.5 ± 15.2 bpm | RPP (Rate Pressure Product) Peak Exercise ([4]; mean ± SD, peak exercise): 18842 ± 3791 bpm · mmHg | dBP Peak Exercise ([4]; mean ± SD, peak exercise): 75.4 ± 11.9 mmhg | sBP Peak exercise ([4]; mean ± SD, peak exercise): 158.7 ± 22.4 mmHg | HR Resting ([4]; mean ± SD, resting): 63.8 ± 8.6 bpm | RPP (Rate Pressure Product) Resting ([4]; mean ± SD, resting): 7910 ± 1577 bpm · mmHg | dBP Resting ([4]; mean ± SD, resting): 72.2 ± 9.9 mmhg | sBP Resting ([4]; mean ± SD, resting): 123.7 ± 16.2 mmHg

CC(C)NCC(O)COc1ccc(CC(N)=O)cc1 (stereo not shown) [atenolol]
increase in time to ST depression, comparable published figures (angina patients): around 50 seconds | increase in time to ST depression, comparable published figures (percent) (angina patients): 15%

COc1ccccc1OCC(O)CN1CCN(CC(=O)Nc2c(C)cccc2C)CC1 (stereo not shown) [ranolazine]
increase in time to ST depression, comparable published figures (angina patients): around 50 seconds | increase in time to ST depression, comparable published figures (percent) (angina patients): 15%
